According to EP4603105A1, “PHARMACEUTICAL COMPOSITION CONTAINING CYCLIC COMPOUND HAVING SELECTIVE KRAS INHIBITORY EFFECT AGAINST HRAS AND NRAS” (CHUGAI SEIYAKU KABUSHIKI KAISHA, priority 2022, dated 2024):
Where a SMILES comes first, the peptide text is derived from it. Bridges are numbered along the chain shown (N, C = ends). [ ]: non-standard residue; d: D form. The star is where a group is joined. hPhe(3-Cl-4-CF3) = N[C@@H](CCc1ccc(C(F)(F)F)c(Cl)c1)C(=O)O; NPrPhe(4-CF3) = CCCN[C@@H](Cc1ccc(C(F)(F)F)cc1)C(=O)O; NEtPhe(4-Me) = CCN[C@@H](Cc1ccc(C)cc1)C(=O)O; NMeGly(cPent) = CN[C@H](C(=O)O)C1CCCC1; Pro(4,4-F2) = O=C(O)[C@@H]1CC(F)(F)CN1; NMeD = CN[C@@H](CC(=O)O)C(=O)O; NMeL = CN[C@@H](CC(C)C)C(=O)O; NMeNva = CCC[C@H](NC)C(=O)O; NMeV = CN[C@H](C(=O)O)C(C)C; Morpholide = C1CN(*)CCO1; NMeA = CN[C@@H](C)C(=O)O; Ac5c = NC1(C(=O)O)CCCC1; Aze = O=C(O)[C@@H]1CCN1; NPrGly = CCCNCC(=O)O; NEtG = CCNCC(=O)O; Sar = CNCC(=O)O

Key:
[1] = test system: human lung cancer strain NCI-H441; assay type: cell-based
Summary of the method: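 Step one: dispense the test compound in serial DMSO dilutions. Step three: add the reagent and measure […].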

HRAS wild-type protein = HRAS wild-type protein (Homo sapiens, UniProt P01112); experiment: Binding to HRAS by surface plasmon resonance (SPR), KD and KD ratio to KRAS
Summary of the method: (§1)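 Biotinylated GDP-bound RAS was captured at about 100–300 RU. Running buffer: HBS pH 7.4, 10 mM MgCl2, 10 µM GDP, 1 mM DTT, 0.01% Tween 20, 4% DMSO.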

[2] = molecular target: GDP-bound NRAS wild-type protein (Homo sapiens, UniProt P01111); experiment: Binding to NRAS by surface plasmon resonance (SPR), KD and KD ratio to KRAS
Summary of the method: as §1

[3] = ratio of the KD value with respect to HRAS wild-type protein to the KD value with respect to KRAS
[4] = ratio of the KD value with respect to GDP-bound NRAS wild-type protein to the KD value with respect to KRAS
[5] = ratio of KD for HRAS wild-type protein to KD for KRAS
[6] = ratio of KD for GDP-bound NRAS wild-type protein to KD for KRAS
[7] = ratio of KD value for HRAS wild-type protein to KD value for KRAS (SPR)
[8] = ratio of KD value for GDP-bound NRAS wild-type protein to KD value for KRAS (SPR)

HRAS wild-type protein, sequence (P01112 whole entry): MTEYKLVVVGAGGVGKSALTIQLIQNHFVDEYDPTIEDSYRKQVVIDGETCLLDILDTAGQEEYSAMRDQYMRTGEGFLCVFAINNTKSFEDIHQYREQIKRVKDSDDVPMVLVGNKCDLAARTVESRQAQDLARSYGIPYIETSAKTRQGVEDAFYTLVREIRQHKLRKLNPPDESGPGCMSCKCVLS
GDP-bound NRAS wild-type protein, sequence (P01111 whole entry): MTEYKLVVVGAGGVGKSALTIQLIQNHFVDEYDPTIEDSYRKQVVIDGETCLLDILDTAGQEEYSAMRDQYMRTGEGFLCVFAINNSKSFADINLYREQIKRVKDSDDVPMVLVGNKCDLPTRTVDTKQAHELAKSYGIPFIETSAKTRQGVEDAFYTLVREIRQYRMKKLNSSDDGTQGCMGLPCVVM

Row | SMILES | IC50 [1] [nM] | HRAS /KRAS (HRAS wild-type protein; [3]) | NRAS /KRAS [2, 4] | HRAS /KRAS (HRAS wild-type protein; [5]) | NRAS /KRAS [2, 6] | HRAS /KRAS (HRAS wild-type protein; [7]) | NRAS /KRAS [2, 8]
1 | CCO[C@@H]1C[C@H]2C(=O)NC3(CC(C)(C)C3)C(=O)N(C)[C@@H](C3CCCC3)C(=O)N(C)[C@H](C(=O)N(C)CC)CC(=O)N(C)[C@@H](C(C)C)C(=O)N[C@@H]([C@@H](C)CC)C(=O)N(C)CC(=O)N(C)[C@H]3C/C=C\CCN(C3=O)[C@@H](Cc3ccc(C(F)(F)F)cc3)C(=O)N(C)CC(=O)N[C@@H](CCc3cc(F)c(C(F)(F)F)c(F)c3)C(=O)N2C1 [PP2034] | 8.8 | A (a compound having 10 or more and less than 20 is denoted as A) | A (a compound having 10 or more and less than 20 is denoted as A) | – | – | – | –
2 | CC[C@H](C)[C@@H]1NC(=O)[C@H](CC(C)C)N(C)C(=O)C[C@@H](C(=O)N2CCOCC2)N(C)C(=O)[C@H](C(C)C)N(C)C(=O)C2(CCCC2)NC(=O)[C@@H]2CCCN2C(=O)[C@H](CCc2ccc(C(F)(F)F)c(Cl)c2)NC(=O)CN(C)C(=O)[C@H](Cc2ccc(C)cc2)N(CC)C(=O)[C@@H]2CCN2C(=O)[C@H](C)N(C)C1=O [PP0015] ([NMeL]I[NMeA][Aze][NEtPhe(4-Me)][Sar][hPhe(3-Cl-4-CF3)]P[Ac5c][NMeV][NMeD]-Morpholide; lactam N-11) | 24.5 | – | – | C (A compound having a KD ratio of 0.1 or more and less than 3 is denoted as C) | C (A compound having a KD ratio of 0.1 or more and less than 3 is denoted as C) | – | –
3 | CCO[C@@H]1C[C@H]2C(=O)NC3(CC(C)(C)C3)C(=O)N(C)[C@@H](C3CCCC3)C(=O)N(C)[C@H](C(C)C)CC(=O)N(C)[C@@H](CC)C(=O)N[C@@H]([C@@H](C)CC)C(=O)N(C)CC(=O)N(C)[C@H]3C/C=C\CCN(C3=O)[C@@H](CC3CCCCC3)C(=O)N(C)CC(=O)N[C@@H](CCc3cc(F)c(C(F)(F)F)c(F)c3)C(=O)N2C1 [PP1603] | 132 | – | – | – | – | B (a compound having 3 or more and less than 10 is denoted as B) | B (a compound having 3 or more and less than 10 is denoted as B)
4 | CCO[C@@H]1C[C@H]2C(=O)NC3(CCC3)C(=O)N(C)[C@@H](C3CCCC3)C(=O)N(CC)[C@H](C(=O)N3CCOCC3)CC(=O)N(C)[C@@H](COC)C(=O)N[C@@H]([C@@H](C)CC)C(=O)N(C)CC(=O)N(C)[C@H]3CCCCCN(C3=O)[C@@H](Cc3ccc(C(F)(F)F)cc3)C(=O)N(C)CC(=O)N[C@@H](CCc3cc(F)c(C(F)(F)F)c(F)c3)C(=O)N2C1 [PP0946] | 378 | – | – | B (a compound having 3 or more and less than 10 is denoted as B) | A (a compound having 10 or more and less than 20 is denoted as A) | – | –
5 | CCC[C@H]1C(=O)N[C@@H]([C@@H](C)CC)C(=O)N(C)CC(=O)N(C)[C@H]2C/C=C\CCN(C2=O)[C@@H](Cc2ccc(C(F)(F)F)cc2)C(=O)N(C)CC(=O)N[C@@H](CCc2ccc(C(F)(F)F)c(Cl)c2)C(=O)N2CCOC[C@H]2C(=O)NC2(CC(C)(C)C2)C(=O)N(C)[C@@H](C(CC)CC)C(=O)N(C)[C@H](C(=O)N(C)C)CC(=O)N1C [PP2929] | 90.3 | – | – | A (a compound having 10 or more and less than 20 is denoted as A) | AA (a compound having 20 or more is denoted as AA) | – | –
6 | CCCO[C@H]1CCN2C(=O)[C@H](CCc3cc(F)c(C(F)(F)F)c(F)c3)NC(=O)CN(C)C(=O)[C@H](Cc3ccc(C(F)(F)F)cc3)N3CCCC[C@@H](C3=O)N(C)C(=O)CN(C)C(=O)[C@H]([C@@H](C)CC)NC(=O)[C@H](CC(C)C)N(C)C(=O)C[C@@H](C(=O)N3CCOCC3)N(C)C(=O)[C@H](C3CCCC3)N(C)C(=O)C3(CCC3)NC(=O)[C@H]12 [PP1077] | 14.9 | – | – | B (a compound having 3 or more and less than 10 is denoted as B) | B (a compound having 3 or more and less than 10 is denoted as B) | – | –
7 | CC[C@H](C)[C@@H]1NC(=O)[C@H](CC(C)C)N(C)C(=O)C[C@@H](C(=O)N2CCOCC2)N(C)C(=O)[C@H](C2CCCC2)N(C)C(=O)C2(CCCC2)NC(=O)[C@@H]2CCCN2C(=O)[C@H](CCc2cc(F)c(C(F)(F)F)c(F)c2)NC(=O)CN(C)C(=O)[C@H](Cc2ccc(C(F)(F)F)cc2)N2CCCC[C@@H](C2=O)N(C)C(=O)[C@H](C)NC1=O [PP0543] | 41.5 | B (a compound having 3 or more and less than 10 is denoted as B) | B (a compound having 3 or more and less than 10 is denoted as B) | – | – | – | –
8 | CCC[C@H]1C(=O)N[C@@H]([C@@H](C)CC)C(=O)N(C)CC(=O)N(C)[C@H]2C/C=C\CCN(C2=O)[C@@H](Cc2ccc(C(F)(F)F)cc2)C(=O)N(C)CC(=O)N[C@@H](CCc2ccc(C(F)(F)F)c(Cl)c2)C(=O)N2C[C@H](OCC)C[C@H]2C(=O)NC2(CC(C)(C)C2)C(=O)N(C)[C@@H](C2CCCC2)C(=O)N(C)[C@H](C(=O)N(C)C)CC(=O)N1C [PP1748] | 3.1 | – | – | – | – | B (a compound having 3 or more and less than 10 is denoted as B) | A (a compound having 10 or more and less than 20 is denoted as A)
9 | CCO[C@@H]1C[C@H]2C(=O)NC3(CCC3)C(=O)N(C)[C@@H](C3CCCC3)C(=O)N(CCc3ccccc3)[C@H](C(=O)N(C)C)CC(=O)N(C)[C@@H](CC)C(=O)N[C@@H]([C@@H](C)CC)C(=O)N(C)CC(=O)N(C)[C@H]3CCCCN(C3=O)[C@@H](Cc3ccc(C(F)(F)F)cc3)C(=O)N(C)CC(=O)N[C@@H](CCc3cc(F)c(C(F)(F)F)c(F)c3)C(=O)N2C1 [PP0647] | 45 | B (a compound having 3 or more and less than 10 is denoted as B) | C (A compound having a KD ratio of 0.1 or more and less than 3 is denoted as C) | – | – | – | –
10 | CCO[C@@H]1C[C@H]2C(=O)NC3(CCC3)C(=O)N(C)[C@@H](C3CCCCC3)C(=O)N(C)[C@H](C(=O)N(C)C)CC(=O)N(C)[C@@H](CC)C(=O)N[C@@H]([C@@H](C)CC)C(=O)N(C)CC(=O)N(C)[C@H]3C/C=C\CCN(C3=O)[C@@H](Cc3ccc(C(F)(F)F)cc3)C(=O)N(C)CC(=O)N[C@@H](CCc3cc(F)c(C(F)(F)F)c(F)c3)C(=O)N2C1 [PP1086] | 22.4 | – | – | A (a compound having 10 or more and less than 20 is denoted as A) | AA (a compound having 20 or more is denoted as AA) | – | –
11 | CCC[C@H]1C(=O)N[C@@H]([C@@H](C)CC)C(=O)N(C)CC(=O)N(C)CC(=O)N(CCC)[C@@H](Cc2ccc(C(F)(F)F)cc2)C(=O)N(C)CC(=O)N[C@@H](CCc2ccc(C(F)(F)F)c(Cl)c2)C(=O)N2CC(F)(F)C[C@H]2C(=O)NC2(CCCC2)C(=O)N(C)[C@@H](C2CCCC2)C(=O)N(C)[C@H](C(=O)N2CCOCC2)CC(=O)N1C [PP0201] ([NMeNva]I[Sar][Sar][NPrPhe(4-CF3)][Sar][hPhe(3-Cl-4-CF3)][Pro(4,4-F2)][Ac5c][NMeGly(cPent)][NMeD]-Morpholide; lactam N-11) | 3.4 | – | – | C (A compound having a KD ratio of 0.1 or more and less than 3 is denoted as C) | B (a compound having 3 or more and less than 10 is denoted as B) | – | –
12 | CC[C@H](C)[C@@H]1NC(=O)[C@H](COC)N(C)C(=O)C[C@@H](C(=O)N(C)C)N(C)C(=O)[C@H](C2CCCC2)N(C)C(=O)C2(CC(C)(C)C2)NC(=O)[C@@H]2CCCCN2C(=O)[C@H](CCc2cc(F)c(C(F)(F)F)c(F)c2)NC(=O)CN(C)C(=O)[C@H](Cc2ccc(C(F)(F)F)cc2)N2CC/C=C\C[C@@H](C2=O)N(C)C(=O)CN(C)C1=O [PP2907] | 46.3 | – | – | A (a compound having 10 or more and less than 20 is denoted as A) | AA (a compound having 20 or more is denoted as AA) | – | –
13 | CCCN1CC(=O)NC2(CCCC2)C(=O)N(C)[C@@H](C2CCCC2)C(=O)N(C)[C@H](C(=O)N2CCOCC2)CC(=O)N(C)[C@@H](CC(C)C)C(=O)N[C@@H]([C@@H](C)CC)C(=O)N(CC)CC(=O)N(C)CC(=O)N(CCC)[C@@H](Cc2ccc(C(F)(F)F)cc2)C(=O)N(C)CC(=O)N[C@@H](CCc2ccc(C(F)(F)F)c(Cl)c2)C1=O [PP0301] ([NMeL]I[NEtG][Sar][NPrPhe(4-CF3)][Sar][hPhe(3-Cl-4-CF3)][NPrGly][Ac5c][NMeGly(cPent)][NMeD]-Morpholide; lactam N-11) | 88.2 | – | – | C (A compound having a KD ratio of 0.1 or more and less than 3 is denoted as C) | B (a compound having 3 or more and less than 10 is denoted as B) | – | –
14 | CCO[C@@H]1C[C@H]2C(=O)NC3(CC(C)(C)C3)C(=O)N(C)[C@@H](C3CCCC3)C(=O)N(C)[C@H](C(=O)N(C)C)CC(=O)N(C)[C@@H](COC)C(=O)N[C@@H]([C@@H](C)CC)C(=O)N(C)CC(=O)N(C)[C@H]3C/C=C\CCN(C3=O)[C@@H](Cc3ccc(C(F)(F)F)cc3)C(=O)N(C)CC(=O)N[C@@H](CCc3ccc(C(F)(F)F)c(Cl)c3)C(=O)N2C1 [PP1753] | 5.9 | – | – | – | – | A (a compound having 10 or more and less than 20 is denoted as A) | A (a compound having 10 or more and less than 20 is denoted as A)
15 | C#CC[C@H]1C(=O)N[C@@H]([C@@H](C)CC)C(=O)N(C)CC(=O)N(C)[C@H]2C/C=C\CCN(C2=O)[C@@H](Cc2ccc(C)cc2)C(=O)N(C)CC(=O)N[C@@H](CCc2ccc(C(F)(F)F)c(Cl)c2)C(=O)N2CC3(CC3)C[C@H]2C(=O)NC2(CC(C)(C)C2)C(=O)N(C)[C@@H](C2CCCC2)C(=O)N(C)[C@H](C(=O)N(C)C)CC(=O)N1C [PP2982] | 11.9 | – | – | A (a compound having 10 or more and less than 20 is denoted as A) | A (a compound having 10 or more and less than 20 is denoted as A) | – | –
